Earlier results, collected in patent publication US4316892A, “2,6-C-Dimethyltyrosine^1 -D-amino acid^2 -ε-amino caproic and γ aminobutyric acid^5 derivatives of methionine enkephalin” (G. D. Searle & Co., priority 1980, dated 1982).

What was measured:
brain opiate receptor = details: partially purified brain opiate receptor; Bradbury et al.
[1] = bioassays for opiate activity
[2] = injected directly into the brain of the rat; Belluzi et al.

Substance: methionine enkephalin
- binding to brain opiate receptor sites (brain opiate receptor): binds stereospecifically
- opiate activity [1]: highly active
- analgesic activity [2]: weak, fleeting analgesic activity
